This passage reports Emax and inhibition in vivo results from US8426406B2, “Glucocorticoid receptor agonist comprising 2,2,4-trimethyl-6-phenyl-1,2-dihydroquinoline derivatives having substituted oxy group” (Santen Pharmaceutical Co., Ltd., priority 2008, dated 2013).

Assay [1] concerns IL-6 production induced by lipopolysaccharide (LPS) in human corneal epithelial cells. In words: Evaluation test for GR agonist activity: inhibition of LPS-induced IL-6 production in human corneal epithelial cells (HCE-T). The class given is cell-based. Particulars: Corneal epithelial cell, 10 μL of 100 μM test compound solution per well, 4 hours incubation, efficacy relative to DEX. In a few lines:
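SV40-immortalized HCE-T cells were treated with test compound (100 μM solution, stock before dilution into well) plus LPS (1 μg/mL solution, likewise pre-dilution) for 4 hours in 10% FBS-DMEM/F12. IL-6 in supernatants was measured by HTRF. Inhibition was calculated relative to LPS-plus-DMSO and no-LPS controls, and efficacy was expressed as % of DEX inhibition.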

The test system of assay [2] is allergic conjunctivitis model in mice. In words: Inhibitory effect on the vascular hyper-permeability in allergic conjunctivitis model. The class given is in vivo. The following applies: Mus musculus, 1% (W/V) test compound suspension instilled to the right eye three times before ovalbumin instillation, dye leakage vs vehicle, mean of 5-6 eyes, read-out: The inhibition ratio of the vascular hyper-permeability (%). On the procedure:
In order to evaluate anti-allergic effect, inhibitory effect on the vascular hyper-permeability in allergic conjunctivitis model in mice was examined. This effect was calculated based on dye leakages of vehicle-treated group (control group) and test compound-treated group.
By adding 0.5% polysorbate 80/saline to the test compound, a 1% (W/V) test compound suspension was prepared.
1) Ovalbumin absorbed on aluminum hydroxide gel was dissolved in saline (20 μg ovalbumin/mL), and male BALE/c mice, 6 weeks old, were actively sensitized to the antigen by intraperitoneal injections of 500 μL of it.
2) On the 6th day from sensitization, sensitized mice were boosted by additional intraperitoneal injections of 500 μL ovalbumin absorbed on aluminum hydroxide gel (20 μg ovalbumin/mL).
3) On the 11th day, 12th day, 13th day, 14th day and 15th day from the first sensitization, allergic conjunctivitis were induced by installations to the right eyes of the mice of […] of 50% glycerol solution containing 15% (W/V) ovalbumin.
4) […] of test compound suspension per eye was instilled to the right eye of the above mice 15 min, 1 hr and 3 hrs before ovalbumin instillation (three times) on the 15th day from sensitization. In vehicle-treated group (control group), the mice were instilled with 0.5% polysorbate 80/saline in substitution for test compound suspension.
5) Just before ovalbumin instillation on the 15th day from sensitization, all animals received a tail intravenous injection of 0.1% Evans blue dye. The right periocular tissues of the mice, which were the leaked parts of dye, were collected 30 min after ovalbumin instillation. The dye was extracted from the tissues with the dye extraction liquid. Then the absorbance of the dye extract was measured. The dye leakage was calculated from the absorbance value, and the inhibition ratio of the vascular hyper-permeability of test compound-treated group was calculated according to calculation equation 1. The inhibition ratio of the vascular hyper-permeability of test compound-treated group(%)=(1−Ax/Ao)×100 (Calculation Equation 1) Ao: Dye leakage in vehicle-treated group (control group) Ax: Dye leakage in test compound-treated group (Test Results and Discussion)

Broadly, the Emax is the maximal effect, on the per cent scale that the assay sets. Regarding `COc1ccccc1NCc1c(-c2ccc(OC(=O)c3ccncc3)cc2OC)ccc2c1C(C)=CC(C)(C)N2` [Compound 1-102, 5-(2-Methoxyphenylaminomethyl)-6-[2-methoxy-4-(pyridin-4-ylcarbonyloxy)phenyl]-2,2,4-trimethyl-1,2-dihydroquinoline], the Emax in assay [1] was 99%. Moreover, the inhibition in vivo at 10000 µg/mL in assay [2] came to 16%.
In assay [1], `CCC(=O)Oc1ccc(OC)c(-c2ccc3c(c2COc2cc(F)ccc2C)C(C)=CC(C)(C)N3)c1` [Compound 1-18, 5-(5-Fluoro-2-methylphenoxymethyl)-6-(2-methoxy-5-propionyloxyphenyl)-2,2,4-trimethyl-1,2-dihydroquinoline] had an Emax of 77%. Further, the inhibition in vivo at 10000 µg/mL in assay [2] is 30%.
In the same order, the values of `COc1cc(OC(=O)c2ccco2)ccc1-c1ccc2c(c1COC(=O)c1ccc(C)s1)C(C)=CC(C)(C)N2` [Compound 1-138, 6-[4-(Furan-2-ylcarbonyloxy)-2-methoxyphenyl]-5-(5-methylthiophen-2-ylcarbonyloxymethyl)-2,2,4-trimethyl-1,2-dihydroquinoline] are 79% and 16%.
For the molecule `COc1ccccc1C(=O)Oc1ccc(-c2ccc3c(c2COC(=O)c2ccc(C)s2)C(C)=CC(C)(C)N3)c(OC)c1` [Compound 1-136, 6-[2-Methoxy-4-(2-methoxybenzoyloxy)phenyl]-5-(5-methylthiophen-2-ylcarbonyloxymethyl)-2,2,4-trimethyl-1,2-dihydroquinoline], in assay [1], the Emax was 89%. Moreover, the inhibition in vivo at 10000 µg/mL in assay [2] was 15%.
For `COc1cc(OC(=O)c2ccccc2Cl)ccc1-c1ccc2c(c1COC(=O)c1ccc(C)s1)C(C)=CC(C)(C)N2` [Compound 1-139, 6-[4-(2-Chlorobenzoyloxy)-2-methoxyphenyl]-5-(5-methylthiophen-2-ylcarbonyloxymethyl)-2,2,4-trimethyl-1,2-dihydroquinoline], in that order: 104% and 15%.
For `COc1cc(OC(=O)c2cccnc2)ccc1-c1ccc2c(c1CNc1cc(F)ccc1C)C(C)=CC(C)(C)N2` [Compound 1-105, 5-(5-Fluoro-2-methylphenylaminomethyl)-6-[2-methoxy-4-(pyridin-3-ylcarbonyloxy)phenyl]-2,2,4-trimethyl-1,2-dihydroquinoline], in that order: 97% and 18%.
In the same order, the values of `COc1cc(OC(=O)c2cccnc2)ccc1-c1ccc2c(c1COC(=O)c1ccc(C)s1)C(C)=CC(C)(C)N2` [Compound 1-137, 6-[2-Methoxy-4-(pyridin-3-ylcarbonyloxy)phenyl]-5-(5-methylthiophen-2-ylcarbonyloxymethyl)-2,2,4-trimethyl-1,2-dihydroquinoline] are 83% and 26%.
